# In US12501899B2, “Mite infestation treatment” (priority 2019, dated 2025):
# Where a name gives a salt, the structure may show the parent alone. Read-outs that look alike come from different tables or passages of the source.
# What was measured:
# Type in all cases: in vivo
# Ixodes ricinus = test: Oral acaricidal test on ticks in membrane feeding wells with treated blood; conditions: for mortality at 1 ppm / mortality at 10 ppm / mortality at 100 ppm: Ixodes ricinus, po
# Protocol: A laboratory study was conducted to determine the oral acaricidal properties of three compounds according to the invention (SN0305, SN0306 and SN0307) against Ixodes ricinus. Each compound was tested at 1, 10 and 100 ppm, and compared to a negative control corresponding to solvent alone (0.1% DMSO). Amitraz at 100 ppm was used as a positive control.
# The Ixodes ricinus ticks (nymphs and adults) were placed for 24 hours on a membrane in feeding wells containing blood mixed with the tested compounds. Tick mortality (number of dead, moribund, or unaffected ticks in each well), attachment to the membrane (number of ticks attached/detached in each well), and the behavior (presence or absence of twitches) were examined 1, 3, 6, 12, 24, 48, 72, and 96 hours after the onset of tick exposure to the compounds.
# Ticks (Ixodes ricinus) were collected. Collected adult females were kept separate from the nymphs and both were placed in sterile tubes in a humidity chamber to provide ˜80% humidity and 17° C. Only healthy ticks (females/nymphs) were chosen for the experiment.
# Batches of 12 adults or nymphs were inserted into the feeding wells. After about 24 hours, their attachment was examined with a brush.
# The efficiency of three compounds (SN0305, SN0306 and SN0307), each tested at three concentrations (1, 10, 100 ppm), was compared to the solvent control (0.1% DMSO, Sigma-Aldrich D-5879; Lot 101K0028) and to the positive control (Amitraze at 100 ppm).
# Silicone-coated membranes with a thickness comprised between 110 and 140 μm were used for the construction of the feeding units.
# Feeding units (sterilized acrylic glass tubes) were placed in feeding wells made of sterilized six-well plates.
# 3.1 ml of sterile 10^−3 M ATP-enriched blood was applied to each feeding well. Feeding wells were then inserted into a heated water bath (FIG. 12) and maintained at 37° C.±2° C.
# Stock solutions of 100,000 ppm were prepared and tenth dilutions were carried out in 0.1% DMSO to reach the desired concentrations. After tick attachment (24 hours after placing the ticks in the feeding wells), 3.1 μl of the solutions were added to each feeding well containing 3.1 ml of blood. Blood was changed after 12 hours with fresh supplementation of the compounds to be tested. The ticks were exposed to the product for a total of 24 hours, after which the blood was again changed to fresh, untreated blood.
# Tick mortality (number of dead, moribund or unaffected ticks in each well), attachment (number of attached/detached ticks in each well) and behavior (presence, absence and intensity of convulsions) were examined 1, 3, 6, 12, 24, 48, 72, and 96 hours after the start of tick exposure to the compound.
# Varroa destructor = test: Efficiency against Varroa mites in beehives outside the brood (gel application)
# Text: (§1) 18 hives of bees were divided into 6 groups of 3 homogeneous hives as regards the strength of the colonies (number of bees) and the Varroa infestation.
# The queen of each hive was caged 3 weeks before the application of the tested compounds. The application of the tested compounds was therefore carried out in a situation outside the brood, which allows the forced passage of the Varroa mites from their reproduction phase to their phoresy phase (they are therefore all present on the bees).
# (§2) The tested compounds were applied in the form of a gel three weeks after the queen was caged. The activity of the compounds was studied for a period of 9 days.
# Following these 9 days of treatment, a control treatment with oxalic acid was carried out (duration of treatment equal to 1 week).
# Counts of Varroa mites falling on the floor were carried out at regular time intervals to quantify the number of dead Varroa mites.
# The efficiency of the treatment was calculated by taking the sum of all the dead Varroa mites from D0 to D9 (tested compounds) and dividing it by the sum of all the dead Varroa mites from D0 to D16 (tested compounds+control treatment).
# (§3) The following compounds were tested: • Dexmedetomidine at 55 mg/hive in hydrochloride form, • Dexmedetomidine at 110 mg/hive in hydrochloride form, • Dexmedetomidine at 220 mg/hive in hydrochloride form, • Detomidine at 38.4 mg/hive in hydrochloride form, • Detomidine at 110 mg/hive in hydrochloride form, • Detomidine at 220 mg/hive in hydrochloride form, Results
# bees = test: Mortality of adult bees in treated beehives (dead bee traps); conditions: 55, 110, 220 mg/hive
# Protocol: as §1, §2
# For this purpose, dead bee traps disposed in front of the hives were used.
# as §3
smiles,measurement,setting,value
"Cc1cccc([C@H](C)c2c[nH]cn2)c1C [Dexmedetomidine hydrochloride, (S)-4-[1-(2,3-dimethylphenyl)-ethyl]-1H-imidazole]",effect in terms of tick detachment (in words),"Ixodes ricinus; 1, 10, 100 ppm, nymphs and adults",very limited effect
same,detached nymphs in a replica,"Ixodes ricinus; 1 ppm, nymphs",1
same,detached adult ticks in a replica,"Ixodes ricinus; 100 ppm, adult ticks",1
same,mortality at 1 ppm,"Ixodes ricinus; adult ticks, 1 ppm, 1 h, read-out: average percentage of adult tick mortality (moribund or dead adult ticks)",0%
same,mortality at 1 ppm,"Ixodes ricinus; adult ticks, 1 ppm, 3 h, read-out: average percentage of adult tick mortality (moribund or dead adult ticks)",0%
same,mortality at 1 ppm,"Ixodes ricinus; adult ticks, 1 ppm, 6 h, read-out: average percentage of adult tick mortality (moribund or dead adult ticks)",3.1%
same,mortality at 1 ppm,"Ixodes ricinus; adult ticks, 1 ppm, 12 h, read-out: average percentage of adult tick mortality (moribund or dead adult ticks)",3.1%
same,mortality at 1 ppm,"Ixodes ricinus; adult ticks, 1 ppm, 24 h, read-out: average percentage of adult tick mortality (moribund or dead adult ticks)",64.2%
same,mortality at 1 ppm,"Ixodes ricinus; adult ticks, 1 ppm, 48 h, read-out: average percentage of adult tick mortality (moribund or dead adult ticks)",88.2%
same,mortality at 1 ppm,"Ixodes ricinus; adult ticks, 1 ppm, 72 h, read-out: average percentage of adult tick mortality (moribund or dead adult ticks)",100%
same,mortality at 1 ppm,"Ixodes ricinus; adult ticks, 1 ppm, 96 h, read-out: average percentage of adult tick mortality (moribund or dead adult ticks)",100%
same,mortality at 10 ppm,"Ixodes ricinus; adult ticks, 1 h, read-out: average percentage of adult tick mortality (moribund or dead adult ticks)",0%
same,mortality at 10 ppm,"Ixodes ricinus; adult ticks, 3 h, read-out: average percentage of adult tick mortality (moribund or dead adult ticks)",0%
same,mortality at 10 ppm,"Ixodes ricinus; adult ticks, 6 h, read-out: average percentage of adult tick mortality (moribund or dead adult ticks)",5.6%
same,mortality at 10 ppm,"Ixodes ricinus; adult ticks, 12 h, read-out: average percentage of adult tick mortality (moribund or dead adult ticks)",11.1%
same,mortality at 10 ppm,"Ixodes ricinus; adult ticks, 24 h, read-out: average percentage of adult tick mortality (moribund or dead adult ticks)",57.3%
same,mortality at 10 ppm,"Ixodes ricinus; adult ticks, 48 h, read-out: average percentage of adult tick mortality (moribund or dead adult ticks)",79.5%
same,mortality at 10 ppm,"Ixodes ricinus; adult ticks, 72 h, read-out: average percentage of adult tick mortality (moribund or dead adult ticks)",96.9%
same,mortality at 10 ppm,"Ixodes ricinus; adult ticks, 96 h, read-out: average percentage of adult tick mortality (moribund or dead adult ticks)",100%
same,mortality at 100 ppm,"Ixodes ricinus; adult ticks, 100 ppm, 1 h, read-out: average percentage of adult tick mortality (moribund or dead adult ticks)",0%
same,mortality at 100 ppm,"Ixodes ricinus; adult ticks, 100 ppm, 3 h, read-out: average percentage of adult tick mortality (moribund or dead adult ticks)",0%
same,mortality at 100 ppm,"Ixodes ricinus; adult ticks, 100 ppm, 6 h, read-out: average percentage of adult tick mortality (moribund or dead adult ticks)",5.9%
same,mortality at 100 ppm,"Ixodes ricinus; adult ticks, 100 ppm, 12 h, read-out: average percentage of adult tick mortality (moribund or dead adult ticks)",11.8%
same,mortality at 100 ppm,"Ixodes ricinus; adult ticks, 100 ppm, 24 h, read-out: average percentage of adult tick mortality (moribund or dead adult ticks)",63.9%
same,mortality at 100 ppm,"Ixodes ricinus; adult ticks, 100 ppm, 48 h, read-out: average percentage of adult tick mortality (moribund or dead adult ticks)",76.4%
same,mortality at 100 ppm,"Ixodes ricinus; adult ticks, 100 ppm, 72 h, read-out: average percentage of adult tick mortality (moribund or dead adult ticks)",91.3%
same,mortality at 100 ppm,"Ixodes ricinus; adult ticks, 100 ppm, 96 h, read-out: average percentage of adult tick mortality (moribund or dead adult ticks)",100%
same,mortality at 1 ppm,"Ixodes ricinus; nymphs, 1 ppm, 1 h, read-out: average percentage of mortality of tick nymphs (moribund or dead nymphs)",0%
same,mortality at 1 ppm,"Ixodes ricinus; nymphs, 1 ppm, 3 h, read-out: average percentage of mortality of tick nymphs (moribund or dead nymphs)",0%
same,mortality at 1 ppm,"Ixodes ricinus; nymphs, 1 ppm, 6 h, read-out: average percentage of mortality of tick nymphs (moribund or dead nymphs)",13.8%
same,mortality at 1 ppm,"Ixodes ricinus; nymphs, 1 ppm, 12 h, read-out: average percentage of mortality of tick nymphs (moribund or dead nymphs)",31.3%
same,mortality at 1 ppm,"Ixodes ricinus; nymphs, 1 ppm, 24 h, read-out: average percentage of mortality of tick nymphs (moribund or dead nymphs)",58.9%
same,mortality at 1 ppm,"Ixodes ricinus; nymphs, 1 ppm, 48 h, read-out: average percentage of mortality of tick nymphs (moribund or dead nymphs)",85.7%
same,mortality at 1 ppm,"Ixodes ricinus; nymphs, 1 ppm, 72 h, read-out: average percentage of mortality of tick nymphs (moribund or dead nymphs)",100%
same,mortality at 1 ppm,"Ixodes ricinus; nymphs, 1 ppm, 96 h, read-out: average percentage of mortality of tick nymphs (moribund or dead nymphs)",100%
same,mortality at 10 ppm,"Ixodes ricinus; nymphs, 1 h, read-out: average percentage of mortality of tick nymphs (moribund or dead nymphs)",0%
same,mortality at 10 ppm,"Ixodes ricinus; nymphs, 3 h, read-out: average percentage of mortality of tick nymphs (moribund or dead nymphs)",9.2%
same,mortality at 10 ppm,"Ixodes ricinus; nymphs, 6 h, read-out: average percentage of mortality of tick nymphs (moribund or dead nymphs)",24.9%
same,mortality at 10 ppm,"Ixodes ricinus; nymphs, 12 h, read-out: average percentage of mortality of tick nymphs (moribund or dead nymphs)",48.3%
same,mortality at 10 ppm,"Ixodes ricinus; nymphs, 24 h, read-out: average percentage of mortality of tick nymphs (moribund or dead nymphs)",83%
same,mortality at 10 ppm,"Ixodes ricinus; nymphs, 48 h, read-out: average percentage of mortality of tick nymphs (moribund or dead nymphs)",96.9%
same,mortality at 10 ppm,"Ixodes ricinus; nymphs, 72 h, read-out: average percentage of mortality of tick nymphs (moribund or dead nymphs)",100%
same,mortality at 10 ppm,"Ixodes ricinus; nymphs, 96 h, read-out: average percentage of mortality of tick nymphs (moribund or dead nymphs)",100%
same,mortality at 100 ppm,"Ixodes ricinus; nymphs, 100 ppm, 1 h, read-out: average percentage of mortality of tick nymphs (moribund or dead nymphs)",0%
same,mortality at 100 ppm,"Ixodes ricinus; nymphs, 100 ppm, 3 h, read-out: average percentage of mortality of tick nymphs (moribund or dead nymphs)",13.3%
same,mortality at 100 ppm,"Ixodes ricinus; nymphs, 100 ppm, 6 h, read-out: average percentage of mortality of tick nymphs (moribund or dead nymphs)",33%
same,mortality at 100 ppm,"Ixodes ricinus; nymphs, 100 ppm, 12 h, read-out: average percentage of mortality of tick nymphs (moribund or dead nymphs)",59%
same,mortality at 100 ppm,"Ixodes ricinus; nymphs, 100 ppm, 24 h, read-out: average percentage of mortality of tick nymphs (moribund or dead nymphs)",92.9%
same,mortality at 100 ppm,"Ixodes ricinus; nymphs, 100 ppm, 48 h, read-out: average percentage of mortality of tick nymphs (moribund or dead nymphs)",100%
same,mortality at 100 ppm,"Ixodes ricinus; nymphs, 100 ppm, 72 h, read-out: average percentage of mortality of tick nymphs (moribund or dead nymphs)",100%
same,mortality at 100 ppm,"Ixodes ricinus; nymphs, 100 ppm, 96 h, read-out: average percentage of mortality of tick nymphs (moribund or dead nymphs)",100%
same,"ticks affected (convulsion, morbidity or death of ticks)","Ixodes ricinus; from 1 hour of exposure, regardless of the concentration tested (1, 10, 100 ppm)",100%
same,total efficiency against Varroa mites (dead Varroa D0 to D9 / dead Varroa D0 to D16),"Varroa destructor; 220 mg/hive, gel, 9 days, outside the brood",94.5%
same,dose dependence of efficiency against Varroa mites (in words),"Varroa destructor; 55, 110, 220 mg/hive",dose effect
same,bee mortality in the hive (in words),bees,no increase in bee mortality
